# Test results from patent US20200368175A1, “METHODS AND DEVICES FOR TREATING LEVODOPA INDUCED DYSKINESIA” (CHRONO THERAPEUTICS INC., priority 2017, published 2020).
# Read-outs that look alike come from different tables or passages of the source.
# How the values were obtained:
# [1] = clinical
# Procedure: The graph is based on the oral nicotine administration protocol administering a 6 mg nicotine tablet every 6 hours, as described in International Patent Publication No. WO 2013/006643, the entirety of which is incorporated by reference herein.
# To obtain the graph shown in FIG. 2, the plasma concentration-time profile of oral nicotine was simulated using the pharmacokinetic equation (equation 1) for multiple-dose oral administration: […]
# where F is oral bioavailability. D is oral dose, ka is absorption rate constant. Vd is volume of distribution, ke is elimination rate constant, s is dose interval, n is the number of dose, and C is the plasma concentration at any time ‘t’.
# The pharmacokinetic parameters F, D, and T were obtained from Hukkanen, J. et al. Pharmacol Rev. 2005 March; 57(1):79-115 and U.S. Patent Publication No. 20130017259A1. Further, the pharmacokinetic parameter absorption rate constant (ka) shown in the above table was obtained by fitting the orally administered nicotine PK data (obtained from Benowitz, N. L. et al. Clin Pharmacol Ther. 1991 March; 49(3):270-7) to a two-compartmental pharmacokinetic model (shown in FIG. 4). Pharmacokinetic parameters Vd (volume of distribution) and ke (elimination rate constant) were obtained by fitting intravenously administered nicotine PK data (obtained from Benowitz, N. L. et al. Clin Pharmacol Ther. 1991 March; 49(3):270-7) to the two-compartmental model shown in FIG. 4 without the absorption component and lag component.
# [2] = transdermal delivery device, clinical PK data fitted to two-compartmental model with lag compartment
# Description: To obtain the graphs shown in FIGS. 5-7, the plasma concentration-time profile of nicotine administered transdermally was simulated by means of a two compartmental model, as shown in FIG. 4. In addition to the two compartments (Central and peripheral), the lag compartment was included to take absorption lag into account associated with transdermal delivery.
# [3] = oral nicotine, human; from Hukkanen et al. and US 20130017259A1; cited from earlier work
# [4] = amnestic MCI subjects, six months, cited from earlier work
structure (smiles),measurement,setting,value
CN1CCCC1c1cccnc1 (stereo not drawn) [nicotine],Vd,"[1]; human, plasma, iv",76 L
same,"ke (elimination rate constant), average value",[1]; intravenous nicotine PK data of Benowitz et al. fitted to two-compartmental model without absorption and lag components,0.9 h⁻¹
same,"ka (absorption rate constant), average value",[1]; oral nicotine PK data of Benowitz et al. fitted to two-compartmental model,2.5 h⁻¹
same,"Vd (volume of distribution), average value",[2],59 L
same,"ka (absorption rate constant), average value",[2],0.29 h⁻¹
same,"ke (elimination rate constant), average value",[2],2.15 h⁻¹
same,"F (oral bioavailability), average value",[3],0.32
same,"effect on attention, memory and psychomotor speed",[4]; 15 mg per day transdermal nicotine vs placebo,"significant nicotine-associated improvements in attention, memory, and psychomotor speed"
same,safety and tolerability,[4]; 15 mg per day transdermal nicotine,excellent safety and tolerability
